Laboratory results: US5756423A, “Method of controlling plants by inhibition of farnesyl pyrophosphate synthase” (Zeneca Limited, priority 1997, dated 1998)
Where two headings read alike, the source gives them in different places.

What was measured:
[1] = test system: farnesyl pyrophosphate synthase in daffodil chromoplasts; assay: inhibition of farnesyl pyrophosphate synthase in daffodil chromoplasts (14C-isopentenyl pyrophosphate incorporation); type: biochemical, Narcissus pseudonarcissus; details: unit inferred, IC50 values in nM, read-out: IC50
In short: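 Daffodil chromoplasts in pH 7.7 sucrose/MgCl2/HEPES buffer with cysteine, NaF and BSA, started with ~3 micromolar 14C-isopentenyl pyrophosphate, 30 min at 30° C. Butanol-extractable radioactivity counted by scintillation; % residual activity calculated against zero-time and end-point no-inhibitor controls.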

[2] = test system: wild oat (Avena fatua) (AVEFA); assay: post-emergent herbicidal test, wild oat; type: in vivo; details: Avena fatua, post-emergence, read-out: AVEFA percent control
In short: (§1)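 Foliar spray, 1 and 4 kg/ha, 0.5% v/v Tween 20 aqueous; grasses 3–4 leaf, broadleaves 1–2 leaf stage, grown 10–12 d. Greenhouse 29/21 °C, 14 h light. Visual % control vs untreated, 17–21 d after treatment.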

[3] = test system: barnyard grass (Enchinochloa crusgalli) (ECHCG); assay: post-emergent herbicidal test, barnyard grass; type: in vivo; details: Echinochloa crus-galli, post-emergence, read-out: ECHCG percent control
In short: as §1

[4] = test system: green foxtail (Setaria viridis) (SETVI); assay: post-emergent herbicidal test, green foxtail; type: in vivo; details: for pest or weed control at 1000 g/ha / pest or weed control at 4000 g/ha: Setaria viridis, post-emergence, read-out: SETVI percent control
In short: as §1

[5] = test system: velvetleaf (Abutilon theophrasti) (ABUTH); assay: post-emergent herbicidal test, velvetleaf; type: in vivo; details: for pest or weed control at 1000 g/ha / pest or weed control at 4000 g/ha: Abutilon theophrasti, post-emergence, read-out: ABUTH percent control
In short: as §1

[6] = test system: morningglory (Ipomoea spp.) (IPOSS); assay: post-emergent herbicidal test, morningglory; type: in vivo; details: Ipomoea, post-emergence, read-out: IPOSS percent control
In short: as §1

[7] = test system: wild mustard (Brassica kaber), also known as Sinapis arvensis (SINAR); assay: post-emergent herbicidal test, wild mustard; type: in vivo; details: for pest or weed control at 1000 g/ha / pest or weed control at 4000 g/ha: Brassica, post-emergence, read-out: SINAR percent control
In short: as §1

[8] = test system: yellow nutsedge (Cyperus esculentus) (CYPES); assay: post-emergent herbicidal test, yellow nutsedge; type: in vivo; details: for pest or weed control at 1000 g/ha / pest or weed control at 4000 g/ha: Cyperus, post-emergence, read-out: CYPES percent control
In short: as §1

[9] = post-emergent, 1.0 kg/ha (*), 17-21 days after application
[10] = post-emergent, 4.0 kg/ha, 17-21 days after application

SMILES | IC50 ([1]; Table I) | IC50 ([1]; Table II) | pest or weed control at 1000 g/ha [2, 9] | pest or weed control at 1000 g/ha [3, 9] | pest or weed control at 1000 g/ha [4, 9] | pest or weed control at 1000 g/ha [5, 9] | pest or weed control at 1000 g/ha [6, 9] | pest or weed control at 1000 g/ha [7, 9] | pest or weed control at 1000 g/ha [8, 9] | also measured
CCCN(CC(C)C)CC(P(=O)(O)O)P(=O)(O)O [Compound 51] | 91 nM | 91 nM | 100% | 98% | 98% | 70% | 15% | 100% | 5% | –
CNCC(O)(P(=O)(O)O)P(=O)(O)O [Compound 23] | 500000 nM | > 500000 nM | – | – | – | – | – | – | – | pest or weed control at 4000 g/ha [2]: 0%; pest or weed control at 4000 g/ha [3]: 0%; pest or weed control at 4000 g/ha [4]: 0%; pest or weed control at 4000 g/ha [5]: 0%; pest or weed control at 4000 g/ha [6]: 0%; pest or weed control at 4000 g/ha [7]: 0%; pest or weed control at 4000 g/ha [8]: 0%
CCNCC(P(=O)(O)O)P(=O)(O)O [Compound 20] | 150 nM | 150 nM | – | – | – | – | – | – | – | pest or weed control at 1000 g/ha [2]: 40%; pest or weed control at 1000 g/ha [3]: 60%; pest or weed control at 1000 g/ha [4]: 50%; pest or weed control at 1000 g/ha [5]: 0%; pest or weed control at 1000 g/ha [6]: 0%; pest or weed control at 1000 g/ha [7]: 10%; pest or weed control at 1000 g/ha [8]: 15%
CCCN(C)CC(P(=O)(O)O)P(=O)(O)O [Compound 32] | 27 nM | 27 nM | 100% | 95% | 100% | 75% | 85% | 100% | 25% | –
CC1(C)CCCN(CC(P(=O)(O)O)P(=O)(O)O)C1 [Compound 47] | 2280 nM | 2280 nM | 0% | 0% | 10% | 0% | 0% | 5% | 0% | –
O=P(O)(O)C(CN1CCCCC1)P(=O)(O)O [Compound 1] | 32 nM | 32 nM | – | – | – | – | – | – | – | pest or weed control at 4000 g/ha [2, 10]: 100%; pest or weed control at 4000 g/ha [3, 10]: 100%; pest or weed control at 4000 g/ha [4, 10]: 100%; pest or weed control at 4000 g/ha [5, 10]: 70%; pest or weed control at 4000 g/ha [6, 10]: 100%; pest or weed control at 4000 g/ha [7, 10]: 100%; pest or weed control at 4000 g/ha [8, 10]: 20%
O=P(O)(O)C(CN1CCCC1)P(=O)(O)O [Compound 4] | – | 38 nM | 60% | 90% | 100% | 20% | 20% | 100% | 5% | –
CC(C)(C)NCC(P(=O)(O)O)P(=O)(O)O [Compound 7] | 238 nM | 239 nM | – | – | – | – | – | – | – | pest or weed control at 4000 g/ha [2, 10]: 85%; pest or weed control at 4000 g/ha [3, 10]: 50%; pest or weed control at 4000 g/ha [4, 10]: 60%; pest or weed control at 4000 g/ha [5, 10]: 5%; pest or weed control at 4000 g/ha [6, 10]: 60%; pest or weed control at 4000 g/ha [7, 10]: 100%; pest or weed control at 4000 g/ha [8, 10]: 15%
Cc1cn(CC(P(=O)(O)O)P(=O)(O)O)cn1 [Compound 58] | 107 nM | 107 nM | 100% | 98% | 100% | 98% | 90% | 100% | 10% | –
CC(NCC(P(=O)(O)O)P(=O)(O)O)c1ccccc1 (stereo not shown) [Compound 26] | 1430 nM | 1430 nM | 80% | 80% | – | – | 10% | – | – | SETVI percent control [4, 9]: 60%; ABUTH percent control [5, 9]: 20%; SINAR percent control [7, 9]: 40%; CYPES percent control [8, 9]: 5%
CCC(C)NCC(P(=O)(O)O)P(=O)(O)O (stereo not shown) [Compound 48] | 32 nM | 32 nM | 100% | 98% | 95% | 60% | 95% | 100% | 50% | –
CCCCCCN(CCC)CC(P(=O)(O)O)P(=O)(O)O [Compound 59] | 135 nM | 135 nM | 85% | 90% | 95% | 30% | 20% | 90% | 5% | –
CC(O)CNCC(P(=O)(O)O)P(=O)(O)O (stereo not shown) [Compound 66] | – | 58 nM | 90% | 95% | 98% | 90% | 75% | 100% | 60% | –
CC1CCCCN1CC(P(=O)(O)O)P(=O)(O)O (stereo not shown) [Compound 10] | 83 nM | 83 nM | – | – | – | – | – | – | – | pest or weed control at 4000 g/ha [2, 10]: 100%; pest or weed control at 4000 g/ha [3, 10]: 85%; pest or weed control at 4000 g/ha [4, 10]: 85%; pest or weed control at 4000 g/ha [5, 10]: 50%; pest or weed control at 4000 g/ha [6, 10]: 90%; pest or weed control at 4000 g/ha [7, 10]: 100%; pest or weed control at 4000 g/ha [8, 10]: 5%
